Assay results: US9487483B2, “Complement pathway modulators and uses thereof” (priority 2012, dated 2016)

Biological target: Recombinant human factor D (Homo sapiens (Human), UniProt P00746)
Assay: biochemical
Format: biochemical
Details: Factor D inhibition data using Method 1; substrate Z-Lys-thiobenzyl, fluorescence readout; read-out: IC50

Chain of Recombinant human factor D (P00746 26-253): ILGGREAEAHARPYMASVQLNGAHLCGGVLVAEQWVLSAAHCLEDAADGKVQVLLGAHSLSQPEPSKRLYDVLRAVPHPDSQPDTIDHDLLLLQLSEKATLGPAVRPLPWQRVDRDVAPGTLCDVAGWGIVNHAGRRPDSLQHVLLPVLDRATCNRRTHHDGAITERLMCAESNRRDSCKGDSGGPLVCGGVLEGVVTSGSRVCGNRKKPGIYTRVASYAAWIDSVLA

First: CC(=O)c1nn(CC(=O)N2[C@@H]3C[C@@H]3C[C@H]2C(=O)NC2CC(C)(C)C2)c2cnccc12 [Example 1, (1R,3S,5R)-2-[2-(3-Acetyl-pyrazolo[3,4-c]pyridin-1-yl)-acetyl]-2-aza-bicyclo[3.1.0]hexane-3-carboxylic acid (3,3-dimethyl-cyclobutyl)-amide]
Second: CC(=O)c1nn(CC(=O)N2[C@@H]3C[C@@H]3C[C@H]2C(=O)NC2CC(F)(F)C2)c2cnccc12 [Example 8, (1R,3S,5R)-2-[2-(3-Acetyl-pyrazolo[3,4-c]pyridin-1-yl)-acetyl]-2-aza-bicyclo[3.1.0]hexane-3-carboxylic acid (3,3-difluoro-cyclobutyl)-amide]
The IC50 of the first is 12-fold lower: 204 nM for the first, 2390 nM for the second. The first is the more potent here.

CC(=O)c1nn(CC(=O)N2[C@@H]3C[C@@H]3C[C@H]2C(=O)NC2CC2(C)C)c2ncccc12 (stereo partly drawn) [Example 2, (1R,3S,5R)-2-[2-(3-Acetyl-pyrazolo[3,4-b]pyridin-1-yl)-acetyl]-2-aza-bicyclo[3.1.0]hexane-3-carboxylic acid (2,2-dimethyl-cyclopropyl)-amide] and CC(=O)c1nn(CC(=O)N2[C@@H]3C[C@@H]3C[C@H]2C(=O)NC2CC2(F)F)c2ncccc12 (stereo partly drawn) [Example 3, (1R,3S,5R)-2-[2-(3-Acetyl-pyrazolo[3,4-b]pyridin-1-yl)-acetyl]-2-aza-bicyclo[3.1.0]hexane-3-carboxylic acid (2,2-difluoro-cyclopropyl)-amide] are within 1.5-fold of each other in IC50: 6900 nM for the first, 4790 nM for the second.

CC(=O)c1nn(CC(=O)N2[C@@H]3C[C@@H]3C[C@H]2C(=O)N[C@@H]2C[C@@H]2F)c2ncccc12 [Example 4, (1R,3S,5R)-2-[2-(3-Acetyl-pyrazolo[3,4-b]pyridin-1-yl)-acetyl]-2-aza-bicyclo[3.1.0]hexane-3-carboxylic acid ((1R,2S)-2-fluoro-cyclopropyl)-amide] and COC(=O)[C@@H]1CC[C@@H](NC(=O)[C@@H]2C[C@H]3C[C@H]3N2C(=O)Cn2nc(C(C)=O)c3cccnc32)C1 [Example 13, (1R,3R)-3-({(1R,3S,5R)-2-[2-(3-Acetyl-pyrazolo[3,4-b]pyridin-1-yl)-acetyl]-2-aza-bicyclo[3.1.0]hexane-3-carbonyl}-amino)-cyclopentane carboxylic acid methyl ester] are within 1.5-fold of each other in IC50: 5130 nM for the first, 5970 nM for the second.

First: CC(=O)c1nn(CC(=O)N2[C@@H]3C[C@@H]3C[C@H]2C(=O)NC2CC(C)(C)CC(C)(C)C2)c2ncccc12 [Example 6, (1R,3S,5R)-2-[2-(3-Acetyl-pyrazolo[3,4-b]pyridin-1-yl)-acetyl]-2-aza-bicyclo[3.1.0]hexane-3-carboxylic acid (3,3,5,5-tetramethyl-cyclohexyl)-amide]
Second: COC(=O)[C@@H]1CCC[C@H](NC(=O)[C@@H]2C[C@H]3C[C@H]3N2C(=O)Cn2nc(C(C)=O)c3cccnc32)C1 [Example 14, (1R,3S)-3-({(1R,3S,5R)-2-[2-(3-Acetyl-pyrazolo[3,4-b]pyridin-1-yl)-acetyl]-2-aza-bicyclo[3.1.0]hexane-3-carbonyl}-amino)-cyclohexanecarboxylic acid methyl ester]
The IC50 of the first is 43-fold lower: 56 nM for the first, 2430 nM for the second. The first is the more potent here.

Compared with CC(=O)c1nn(CC(=O)N2[C@@H]3C[C@@H]3C[C@H]2C(=O)NC2CCOC(C)(C)C2)c2cnccc12 (stereo partly drawn) [Example 7, (1R,3S,5R)-2-[2-(3-Acetyl-pyrazolo[3,4-c]pyridin-1-yl)-acetyl]-2-aza-bicyclo[3.1.0]hexane-3-carboxylic acid (2,2-dimethyl-tetrahydro-pyran-4-yl)-amide], CC(=O)c1nn(CC(=O)N2[C@@H]3C[C@@H]3C[C@H]2C(=O)NC2CCC(F)(F)CC2)c2cnccc12 [Example 11, (1R,3S,5R)-2-[2-(3-Acetyl-pyrazolo[3,4-c]pyridin-1-yl)-acetyl]-2-aza-bicyclo[3.1.0]hexane-3-carboxylic acid (4,4-difluoro-cyclohexyl)-amide] is 1.8-fold higher in IC50: 1680 nM for the first, 3020 nM for the second. The first is the more potent here.

Going from NC(=O)n1cc(NC(=O)N2[C@@H]3C[C@@H]3C[C@H]2C(=O)NC2CCCCC2)c2ccccc21 [Example 15, (1R,3S,5R)-2-Aza-bicyclo[3.1.0]hexane-2,3-dicarboxylic acid 2-[(1-carbamoyl-1H-indol-3-yl)-amide]3-cyclohexylamide] to CO[C@H]1CCC[C@@H](NC(=O)[C@@H]2C[C@H]3C[C@H]3N2C(=O)Nc2cn(C(N)=O)c3ccccc23)C1 [Example 21, (1R,3S,5R)-2-Aza-bicyclo[3.1.0]hexane-2,3-dicarboxylic acid 2-[(1-carbamoyl-1H-indol-3-yl)-amide] 3-[((1R,3S)-3-methoxy-cyclohexyl)-amide]], the IC50 falls from 1760 nM to 486 nM (3.6-fold).

Compared with NC(=O)n1cc(NC(=O)N2[C@@H]3C[C@@H]3C[C@H]2C(=O)N[C@@H]2C=CCCC2)c2ccccc21 [Example 16, (1R,3S,5R)-2-Aza-bicyclo[3.1.0]hexane-2,3-dicarboxylic acid 2-[(1-carbamoyl-1H-indol-3-yl)-amide] 3-(S)-cyclohex-2-enylamide], CC[C@H]1CCC[C@@H](NC(=O)[C@@H]2C[C@H]3C[C@H]3N2C(=O)Nc2cn(C(N)=O)c3ccccc23)C1 [Example 23, (1R,3S,5R)-2-Aza-bicyclo [3.1.0]hexane-2,3-dicarboxylic acid 2-[(1-carbamoyl-1H-indol-3-yl)-amide] 3-[((1R,3S)-3-ethyl-cyclohexyl)-amide]] is 200-fold lower in IC50: 3150 nM for the first, 16 nM for the second.

Going from CC1(C)CCC[C@@H](NC(=O)[C@@H]2C[C@H]3C[C@H]3N2C(=O)Nc2cn(C(N)=O)c3ccccc23)C1 [Example 22, (1R,3S,5R)-2-Aza-bicyclo[3.1.0]hexane-2,3-dicarboxylic acid 2-[(1-carbamoyl-1H-indol-3-yl)-amide] 3-[((R)-3,3-dimethyl-cyclohexyl)-amide]] to CC[C@@H]1CCC[C@H](NC(=O)[C@@H]2C[C@H]3C[C@H]3N2C(=O)Nc2cn(C(N)=O)c3ccccc23)C1 [Example 24, (1R,3S,5R)-2-Aza-bicyclo [3.1.0]hexane-2,3-dicarboxylic acid 2-[(1-carbamoyl-1H-indol-3-yl)-amide] 3-[((1S,3R)-3-ethyl-cyclohexyl)-amide]], the IC50 rises from 15 nM to 401 nM (27-fold). The first is the more potent here.

Same assay, conditions: IC50, Factor D inhibition data using Method 1; substrate Z-Lys-thiobenzyl, fluorescence readout

Going from COC1(C(F)(F)F)CCCC(NC(=O)[C@@H]2C[C@H]3C[C@H]3N2C(=O)Cn2nc(C(N)=O)c3ccccc32)C1 (single isomer, unassigned) [Example 39] to NC(=O)c1nn(CC(=O)N2[C@@H]3C[C@@H]3C[C@H]2C(=O)NC2CCCC3(CC3)C2)c2ccccc12 (single isomer, unassigned) [Example 57], the IC50 rises from 85 nM to 1930 nM (23-fold). The first is the more potent here.

Going from COC1(C(F)(F)F)CCCC(NC(=O)[C@@H]2C[C@H]3C[C@H]3N2C(=O)Cn2nc(C(N)=O)c3ccccc32)C1 (single isomer, unassigned) [Example 40] to NC(=O)c1nn(CC(=O)N2[C@@H]3C[C@@H]3C[C@H]2C(=O)NC2CCCC3(CC3)C2)c2ccccc12 (single isomer, unassigned) [Example 58], the IC50 falls from 4470 nM to 41 nM (110-fold).

Compared with CC1(C)CCC(NC(=O)[C@@H]2C[C@H]3C[C@H]3N2C(=O)Cn2nc(C(N)=O)c3ccncc32)C1 (single isomer, unassigned) [Example 67], CC(=O)c1nn(CC(=O)N2[C@H](C(=O)NC3CCCC4(CC4)C3)C[C@@]3(CO)C[C@@H]23)c2cnccc12 (single isomer, unassigned) [Example 113] is 3.5-fold lower in IC50: 318 nM for the first, 90 nM for the second. The second is the more potent here.

First: CC1(C)CCC(NC(=O)[C@@H]2C[C@H]3C[C@H]3N2C(=O)Cn2nc(C(N)=O)c3ccncc32)C1 (single isomer, unassigned) [Example 68]
Second: CC(=O)c1nn(CC(=O)N2[C@H](C(=O)NC3CCCC4(CC4)C3)C[C@@]3(CO)C[C@@H]23)c2cnccc12 (single isomer, unassigned) [Example 114]
The IC50 of the first is 1.5-fold higher: 1920 nM for the first, 1280 nM for the second. The second is the more potent here.

Compound NC(=O)c1nn(CC(=O)N2C[C@H](F)C[C@H]2C(=O)NC2CCCC3(CC3)C2)c2ccccc12 (single isomer, unassigned) [Example 92] has an IC50 of 2000 nM.
NC(=O)c1nn(CC(=O)N2C[C@H](F)C[C@H]2C(=O)NC2CCCC3(CC3)C2)c2ccccc12 (single isomer, unassigned) [Example 93] was tested, and the IC50 was 92 nM.

Same assay, conditions: read-out: IC50

First: COC1(C)CCCC(NC(=O)[C@@H]2C[C@H]3C[C@H]3N2C(=O)Cn2nc(C(N)=O)c3ccccc32)C1 (mixture of isomers) [Example 126, 1-(2-((1R,3S,5R)-3-(((1R,3S) and (1S,3R)-3-methoxy-3-methylcyclohexyl)carbamoyl)-2-azabicyclo[3.1.0]hexan-2-yl)-2-oxoethyl)-1H-indazole-3-carboxamide]
Second: CC(=O)c1nn(CC(=O)N2[C@@H]3C[C@@H]3C[C@H]2C(=O)NC2CCCC(F)(F)C2)c2cnccc12 (stereo partly drawn) [Example 9, (1R,3S,5R)-2-[2-(3-Acetyl-pyrazolo[3,4-c]pyridin-1-yl)-acetyl]-2-aza-bicyclo[3.1.0]hexane-3-carboxylic acid (3,3-difluoro-cyclohexyl)-amide]
The IC50 of the first is 7.4-fold lower: 200 nM for the first, 1480 nM for the second.

First: CC(=O)c1nn(CC(=O)N2[C@@H]3C[C@@H]3C[C@H]2C(=O)NC2CC(C)CC(C)(C)C2)c2ncccc12 (stereo partly drawn) [Example 5, (1R,3S,5R)-2-[2-(3-Acetyl-pyrazolo[3,4-b]pyridin-1-yl)-acetyl]-2-aza-bicyclo[3.1.0]hexane-3-carboxylic acid (3,3,5-trimethyl-cyclohexyl)-amide]
Second: CC(=O)c1nn(CC(=O)N2[C@@H]3C[C@@H]3C[C@H]2C(=O)N[C@@H]2CC[C@@H](C(N)=O)C2)c2ncccc12 [Example 12, (1R,3S,5R)-2-[2-(3-Acetyl-pyrazolo[3,4-b]pyridin-1-yl)-acetyl]-2-aza-bicyclo[3.1.0]hexane-3-carboxylic acid ((1R,3R)-3-carbamoyl-cyclopentyl)-amide]
The IC50 of the first is 580-fold lower: 22 nM for the first, 12700 nM for the second. The first is the more potent here.

First: CC(=O)c1nn(CC(=O)N2[C@@H]3C[C@@H]3C[C@H]2C(=O)NC2(CO)CCCCC2)c2cnccc12 [Example 10, (1R,3S,5R)-2-[2-(3-Acetyl-pyrazolo[3,4-c]pyridin-1-yl)-acetyl]-2-aza-bicyclo[3.1.0]hexane-3-carboxylic acid (1-hydroxymethyl-cyclohexyl)-amide]
Second: C[C@H]1CCC[C@@H](NC(=O)[C@@H]2C[C@H]3C[C@H]3N2C(=O)Nc2cn(C(N)=O)c3ccccc23)C1 [Example 25, (1R,3S,5R)-2-Aza-bicyclo[3.1.0] hexane-2,3-dicarboxylic acid 2-[(1-carbamoyl-1H-indol-3-yl)-amide] 3-[((1R,3S)-3-methyl-cyclohexyl)-amide]]
The IC50 of the first is 65-fold higher: 1820 nM for the first, 28 nM for the second. The second is the more potent here.
